In ChEMBL document CHEMBL2331446, “Discovery of a potential anti-inflammatory agent: 3-oxo-29-noroleana-1,9(11),12-trien-2,20-dicarbonitrile” (J Med Chem, 2013):
The source made the active and inactive calls. No cut-off for these calls is given here.

What was measured:
Mus musculus [1] = experiment: Antiinflammatory activity in ICR mouse assessed as reversal in LPS-induced weight loss at 12.5 to 200 mg/kg, ip administered for 5 days prior to LPS-challenge measured from day 9 to 11 relative to control; format: functional, organism-based
RAW264.7 [2] = experiment: Antiinflammatory activity in mouse RAW264.7 cells assessed as inhibition of NO production after 24 hrs in presence of mifepristone; format: functional, cell-based
Mus musculus [3] = experiment: Antiinflammatory activity in ICR mouse assessed as reversal in LPS-induced weight loss at 12.5 to 200 mg/kg, ip administered for 5 days prior to LPS-challenge measured up to day 8 relative to control; format: functional, organism-based
RAW264.7 [4] = experiment: Antiinflammatory activity in mouse RAW264.7 cells assessed as inhibition of LPS-stimulated TNF-alpha mRNA expression at 0.2 to 0.4 uM incubated for 2 hrs prior to LPS-challenge measured after 8 hrs by quantitative real time PCR analysis; format: functional, cell-based
Mus musculus [5] = experiment: Antiinflammatory activity in ICR mouse assessed as protection against LPS-induced sepsis at 50 mg/kg, ip administered for 5 days prior to LPS-challenge measured after 2 hrs; format: functional, organism-based; set-up: dose 50 mg/kg
RAW264.7 [6] = experiment: Effect on JNK level in mouse LPS-induced RAW264.7 cells at 0.1 to 0.4 uM incubated for 2 hrs prior to LPS-challenge measured after 30 mins by Western blot analysis; format: functional, cell-based
[7] = biological target: T1, NF-kappa-B inhibitor alpha (Mus musculus) (UniProt Q9Z1E3); experiment: Inhibition of IkappaBalpha degradation in mouse LPS-induced RAW264.7 cells assessed as increase in cytosolic IkappaB level at 0.1 to 0.4 uM incubated for 2 hrs prior to LPS-challenge measured after 30 mins by Western blot analysis; format: cell-based
T1 sequence (whole entry): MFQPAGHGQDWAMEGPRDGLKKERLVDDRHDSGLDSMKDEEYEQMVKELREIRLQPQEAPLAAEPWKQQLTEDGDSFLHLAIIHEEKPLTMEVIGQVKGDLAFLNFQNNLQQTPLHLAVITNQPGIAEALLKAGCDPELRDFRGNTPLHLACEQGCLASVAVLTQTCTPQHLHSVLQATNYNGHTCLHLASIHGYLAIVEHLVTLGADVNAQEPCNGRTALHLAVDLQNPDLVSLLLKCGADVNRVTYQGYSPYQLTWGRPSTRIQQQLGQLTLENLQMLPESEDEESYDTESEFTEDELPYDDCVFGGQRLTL

[8] = biological target: T1, NF-kappa-B inhibitor alpha (Mus musculus); experiment: Inhibition of IkappaBalpha in mouse RAW264.7 cells assessed as inhibition of LPS-stimulated NF-kappaB p65 subunit translocation to nucleus at 0.1 to 0.4 uM incubated for 2 hrs prior to LPS-challenge measured after 30 mins by Western blot analysis; format: cell-based
RAW264.7 [9] = experiment: Antiinflammatory activity in mouse RAW264.7 cells assessed as inhibition of LPS-stimulated IL-6 mRNA expression incubated for 2 hrs prior to LPS-challenge measured after 8 hrs by quantitative real time PCR analysis relative to control; format: functional, cell-based
RAW264.7 [10] = experiment: Effect on MAPK p38 level in mouse LPS-induced RAW264.7 cells at 0.1 to 0.4 uM incubated for 2 hrs prior to LPS-challenge measured after 30 mins by Western blot analysis; format: functional, cell-based
RAW264.7 [11] = experiment: Inhibition of ERK phosphorylation in mouse LPS-induced RAW264.7 cells at 0.1 to 0.4 uM incubated for 2 hrs prior to LPS-challenge measured after 30 mins by Western blot analysis; format: cell-based
RAW264.7 [12] = experiment: Antiinflammatory activity in mouse RAW264.7 cells assessed as inhibition of LPS-induced NO production at 50 uM incubated for 2 hrs prior to LPS-challenge measured after 24 hrs by Griess method; format: functional
[13] = biological target: MAP kinase p38 (Mus musculus) (UniProt P47811+O08911+Q9WUI1+Q9Z1B7); experiment: Inhibition of MAPK p38 in mouse LPS-induced RAW264.7 cells at 0.1 to 0.4 uM incubated for 2 hrs prior to LPS-challenge measured after 30 mins by Western blot analysis; format: cell-based
RAW264.7 [14] = experiment: Antiinflammatory activity in mouse RAW264.7 cells assessed as inhibition of LPS-induced NO production incubated for 2 hrs prior to LPS-challenge measured after 24 hrs by Griess method; format: functional, cell-based
RAW264.7 [15] = experiment: Ratio of glycyrrhetinic acid to compound activity in mouse RAW264.7 cells; format: functional
[16] = biological target: T1, NF-kappa-B inhibitor alpha (Mus musculus); experiment: Inhibition of IkappaB phosphorylation in mouse LPS-induced RAW264.7 cells at 0.1 to 0.4 uM incubated for 2 hrs prior to LPS-challenge measured after 30 mins by Western blot analysis; format: cell-based
Mus musculus [17] = experiment: Antiinflammatory activity in ICR mouse assessed as protection against LPS-induced sepsis at 12.5 to 200 mg/kg, ip administered for 5 days prior to LPS-challenge measured after 2 hrs post last dose; format: functional, organism-based
RAW264.7 [18] = experiment: Cytotoxicity against mouse LPS-challenged RAW264.7 cells at 80 uM after 24 hrs by MTT assay; format: cell-based; conditions: raw264.7, 24 h
RAW264.7 [19] = experiment: Antiinflammatory activity in mouse RAW264.7 cells assessed as inhibition of LPS-stimulated IL-6 mRNA expression at 0.1 to 0.4 uM incubated for 2 hrs prior to LPS-challenge measured after 8 hrs by quantitative real time PCR analysis; format: functional, cell-based
RAW264.7 [20] = experiment: Antiinflammatory activity in mouse RAW264.7 cells assessed as inhibition of LPS-stimulated IL-1beta mRNA expression at 0.1 to 0.4 uM incubated for 2 hrs prior to LPS-challenge measured after 8 hrs by quantitative real time PCR analysis; format: functional, cell-based
RAW264.7 [21] = experiment: Cytotoxicity against mouse RAW264.7 cells at 80 uM after 24 hrs by MTT assay; format: cell-based; conditions: raw264.7, 24 h
RAW264.7 [22] = experiment: Antiinflammatory activity in mouse RAW264.7 cells assessed as inhibition of LPS-induced iNOS mRNA expression at 0.1 to 0.4 uM incubated for 2 hrs prior to LPS-challenge measured after 8 hrs by qPCR analysis; format: functional, cell-based
RAW264.7 [23] = experiment: Inhibition of JNK phosphorylation in mouse LPS-induced RAW264.7 cells at 0.1 to 0.4 uM incubated for 2 hrs prior to LPS-challenge measured after 30 mins by Western blot analysis; format: cell-based
RAW264.7 [24] = experiment: Effect on ERK level in mouse LPS-induced RAW264.7 cells at 0.1 to 0.4 uM incubated for 2 hrs prior to LPS-challenge measured after 30 mins by Western blot analysis; format: functional, cell-based
RAW264.7 [25] = experiment: Antiinflammatory activity in mouse RAW264.7 cells assessed as inhibition of LPS-induced iNOS protein expression incubated for 2 hrs prior to LPS-challenge measured after 24 hrs by Western blot analysis; format: functional, cell-based

For CC1(C)C(=O)C(C#N)=C[C@]2(C)C3=CC=C4[C@@H]5C[C@@](C)(C#N)CC[C@]5(C)CC[C@@]4(C)[C@]3(C)CC[C@@H]12, the Activity (Mus musculus [1]) was “Active”, the inhibition (RAW264.7 [2]) was “Active” and the Activity (Mus musculus [3]) was “inactive”. The inhibition (RAW264.7 [4]) was “Active”, the Activity (Mus musculus [5]) was “Active” and the Activity (RAW264.7 [6]) was “inactive”. For the same compound, the inhibition [7] was “Active”, the inhibition [8] was “Active” and the inhibition (RAW264.7 [9]) was “inactive”. For the same compound, the Activity (RAW264.7 [10]) was “inactive”, the inhibition (RAW264.7 [11]) was “Active” and the inhibition at 50 µM (RAW264.7 [12]) was 99.1%. The inhibition [13] was “Active”, the IC50 (RAW264.7 [14]) was 200 nM and the Ratio (RAW264.7 [15]) was 1000. The inhibition [16] was “Active”, the Activity (Mus musculus [17]) was “inactive” and the Activity (RAW264.7 [18]) was “Non-toxic”. The inhibition (RAW264.7 [19]) was “Dose-dependent effect”, the inhibition (RAW264.7 [20]) was “Dose-dependent effect” and the Activity (RAW264.7 [21]) was “Non-toxic”. The inhibition (RAW264.7 [22]) was “Active”, the inhibition (RAW264.7 [23]) was “Active” and the Activity (RAW264.7 [24]) was “inactive”. The inhibition (RAW264.7 [25]) was “Dose-dependent effect”.
